Assay results: PMC12365925, “Structural insights into a bacterial terpene cyclase fused with haloacid Dehalogenase-like phosphatase” (Chemical Science, 2025)

Target: T1, AsDMS (wild-type drimenol synthase) (Aquimarina spongiae, UniProt A0A1M6CXF0)
T1 construct: gene SAMN04488508_102320; wild-type, bifunctional N-terminal HAD and C-terminal TCbeta domains; dimer by gel filtration
Assay: steady-state kinetics of dephosphorylation
Assay type: biochemical
Conditions: HAD domain phosphatase site, Mg2+-dependent

T1 sequence (A0A1M6CXF0 entry or part of it): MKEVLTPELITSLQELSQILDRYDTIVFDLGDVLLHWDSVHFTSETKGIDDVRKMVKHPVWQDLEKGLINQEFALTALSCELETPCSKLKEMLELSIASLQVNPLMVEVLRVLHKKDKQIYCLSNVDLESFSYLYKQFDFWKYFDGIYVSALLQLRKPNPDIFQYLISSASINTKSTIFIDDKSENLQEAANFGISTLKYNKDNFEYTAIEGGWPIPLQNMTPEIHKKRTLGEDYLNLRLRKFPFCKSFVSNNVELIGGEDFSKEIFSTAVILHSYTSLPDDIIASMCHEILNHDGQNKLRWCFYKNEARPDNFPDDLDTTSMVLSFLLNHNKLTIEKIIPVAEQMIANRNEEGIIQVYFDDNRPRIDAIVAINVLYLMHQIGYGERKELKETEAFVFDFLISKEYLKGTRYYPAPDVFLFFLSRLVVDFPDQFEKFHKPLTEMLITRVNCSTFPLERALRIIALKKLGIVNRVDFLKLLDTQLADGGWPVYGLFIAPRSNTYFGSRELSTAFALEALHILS

CC1=CC[C@H]2C(C)(C)CCC[C@]2(C)[C@H]1COP(=O)(O)O [compound 3, drimenyl monophosphate]
Km: 5.81 ± 0.81 µM
